Test results as given in ChEMBL document CHEMBL1152367, “Discovery and functional evaluation of diverse novel human CB(1) receptor ligands” (Bioorg Med Chem Lett, 2009).

Assays:
Cannabinoid receptor 1 [1] = molecular target: T1, Cannabinoid receptor 1 (Homo sapiens, UniProt P21554); experiment: Displacement of [3H]rimonabant from human CB1 receptor expressed in HEK293 cells assessed as signal point inhibition at 10 uM by liquid scintillation counting; type: cell-based
Cannabinoid receptor 1 [2] = molecular target: T1, Cannabinoid receptor 1; experiment: biochemical; type: cell-based, HEK293
Cannabinoid receptor 1 [3] = molecular target: T1, Cannabinoid receptor 1; experiment: Inverse agonist activity at human CB1 receptor by [35S]GTPgammaS incorporation assay relative to rimonabant; type: functional; design: concentration or dose not given beside the values
Cannabinoid receptor 2 = Cannabinoid receptor 2 (Homo sapiens, UniProt P34972); experiment: Displacement of [3H]rimonabant from human CB2 receptor expressed in HEK293 cells by liquid scintillation counting; type: cell-based
Cannabinoid receptor 1 [4] = molecular target: T1, Cannabinoid receptor 1; experiment: Inverse agonist activity at human CB1 receptor by [35S]GTPgammaS incorporation assay; type: functional
Homo sapiens = species on record: Homo sapiens; experiment: Selectivity ratio of Ki for human CB2 receptor to Ki for human CB1 receptor

T1 sequence (P21554 whole entry): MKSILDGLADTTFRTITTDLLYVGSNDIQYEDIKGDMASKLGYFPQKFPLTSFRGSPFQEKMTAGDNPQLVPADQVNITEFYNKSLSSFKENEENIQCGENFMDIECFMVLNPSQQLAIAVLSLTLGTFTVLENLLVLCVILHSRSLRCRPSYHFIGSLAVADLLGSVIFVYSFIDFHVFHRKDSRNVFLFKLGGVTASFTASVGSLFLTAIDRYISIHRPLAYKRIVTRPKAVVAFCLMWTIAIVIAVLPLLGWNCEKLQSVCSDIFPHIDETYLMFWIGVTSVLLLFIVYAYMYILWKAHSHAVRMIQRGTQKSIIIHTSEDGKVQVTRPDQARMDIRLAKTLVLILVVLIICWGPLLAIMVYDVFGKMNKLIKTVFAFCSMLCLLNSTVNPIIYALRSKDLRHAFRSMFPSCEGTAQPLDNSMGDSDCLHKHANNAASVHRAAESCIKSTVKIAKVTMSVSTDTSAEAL
Sequence of Cannabinoid receptor 2 (P34972 whole entry): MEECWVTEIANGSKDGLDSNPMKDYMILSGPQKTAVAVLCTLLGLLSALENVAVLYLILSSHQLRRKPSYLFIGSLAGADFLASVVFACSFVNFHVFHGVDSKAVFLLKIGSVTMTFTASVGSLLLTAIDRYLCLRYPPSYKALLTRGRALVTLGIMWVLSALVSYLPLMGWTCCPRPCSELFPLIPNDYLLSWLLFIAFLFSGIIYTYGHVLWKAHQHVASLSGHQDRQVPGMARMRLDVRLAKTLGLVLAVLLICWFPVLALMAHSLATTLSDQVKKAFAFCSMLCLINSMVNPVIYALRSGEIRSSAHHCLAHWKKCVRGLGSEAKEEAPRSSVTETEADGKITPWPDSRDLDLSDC

| SMILES | inhibition (Cannabinoid receptor 1 [1]) | Ki (Cannabinoid receptor 1 [2]) | Activity (Cannabinoid receptor 1 [3]) | Ki (Cannabinoid receptor 2) | EC50 (Cannabinoid receptor 1 [4]) | Ratio Ki (Homo sapiens) |
| --- | --- | --- | --- | --- | --- | --- |
| O=C(c1ccc(-n2cnnn2)cc1)N(c1ccccc1)C1(C(=O)Nc2ccccc2)CCCCC1 | 71% | 1050 nM |  |  |  |  |
| CC(C(=O)N1c2ccccc2C(C)(c2ccc(Cl)cc2)CC1(C)C)N1C(=O)C2CCCCC2C1=O (configuration not stated) | 73% | 520 nM |  |  |  |  |
| CS/C(=N\S(=O)(=O)c1ccc(-n2nc(C(F)(F)F)cc2-c2cccs2)cc1)N1CCCC1 | 63% | 1000 nM |  |  |  |  |
| Cc1ccc(Cc2nsc(N3CCCN(C(=O)Nc4c(C(C)C)cccc4C(C)C)CC3)n2)cc1 | 77% | 1760 nM |  |  |  |  |
| Cc1cc(C)c(OCC(=O)Nc2sc3c(c2C(=O)NC2CCS(=O)(=O)C2)CCCC3)c(C)c1 (configuration not stated) | 94% | 325 nM | 60% | 58 nM | 400 nM | 0.2 |
| Cc1cc(-c2ccccc2)n(Cc2ccccc2)c(=O)c1S(=O)(=O)c1ccccc1 | 73% | 2720 nM |  |  |  |  |
| CC1CN(c2ncnc(NC(c3ccccc3)c3ccccc3)c2[N+](=O)[O-])CC(C)O1 (configuration not stated) | 67% | 1180 nM |  |  |  |  |
| CCCNC(=O)N1CCN(c2nc(Cc3ccccc3)c3c(c2C#N)CC(C)(C)OC3)CC1 | 81% | 3950 nM |  |  |  |  |
| Cc1ccc(C(=O)n2cc(/C=N/Nc3nc(N4CCOCC4)nc(N4CCOCC4)n3)c3ccccc32)cc1 | 85% | 2300 nM |  |  |  |  |
| Cc1ccc(C(C(=O)Nc2ccc3c(c2)OCCO3)N(C)C(=O)/C=C\c2ccc3c(c2)OCO3)cc1 (configuration not stated) | 71% | 1470 nM |  |  |  |  |
| CCOC(=O)N1CCN(C(=O)c2cc(-c3ccccc3Cl)nn2-c2ccc(C)cc2C)CC1 | 98% | 287 nM | 44% | 1070 nM | 200 nM | 3.7 |
| COc1ccc(-c2cc(C(=O)N3CCN(C(C)=O)CC3)n(-c3cccc(C)c3)n2)c(OC)c1 | 77% | 1940 nM |  |  |  |  |
| CCOC(=O)N1CC=C2C(C1)C1(C(=O)N(Cc3ccccc3)c3ccccc31)C(C#N)=C(N)C2(C#N)C#N (configuration not stated) | 82% | 1090 nM |  |  |  |  |
| CCN(Cc1ccccc1)C(=O)c1oc2ccc(S(=O)(=O)N3CC(C)CC(C)C3)cc2c1C (configuration not stated) |  |  | 95% |  | 300 nM | 33.7 |

The remaining lines, values ahead:

| inhibition (Cannabinoid receptor 1 [1]) | Ki (Cannabinoid receptor 1 [2]) | Activity (Cannabinoid receptor 1 [3]) | Ki (Cannabinoid receptor 2) | EC50 (Cannabinoid receptor 1 [4]) | Ratio Ki (Homo sapiens) | SMILES |
| --- | --- | --- | --- | --- | --- | --- |
| 90% | 227 nM | 81% | 3920 nM | 600 nM | 17.3 | COc1cccc(N2C(C(C)=O)=NN(c3ccc(Cl)cc3)C2c2ccc(N3CCOCC3)cc2)c1 (configuration not stated) |
| 79% | 2780 nM |  |  |  |  | Cc1cccc(C)c1N(C(=O)c1ccccc1Cl)C(=O)C(c1ccc([N+](=O)[O-])cc1)N1CCOCC1 (configuration not stated) |
| 77% | 611 nM | 50% | 10000 nM | 500 nM | > 16.4 | CC1CC(C)CN(S(=O)(=O)c2ccc(F)c(C(=O)NC(c3ccccc3)c3ccccc3)c2)C1 (configuration not stated) |
| 64% | 1030 nM | 77% |  | 1100 nM |  | CC(C)N(CC(=O)N1c2ccccc2-n2cccc2C1c1ccc(F)cc1)C(=O)CC(C)(C)C (configuration not stated) |
| 77% | 273 nM |  |  |  |  | CCOC(=O)CN1C(c2ccc(F)cc2)Nc2ccc(Br)cc2C1c1ccccc1 (configuration not stated) |
| 69% | 2400 nM |  |  |  |  | COc1ccc(C2C(C(=O)Nc3cccc(C)n3)c3ccccc3C(=O)N2C2CCCCC2)cc1 (configuration not stated) |
| 85% | 264 nM | 91% | 10000 nM | 1200 nM | > 37.9 | COc1ccccc1NC(=O)C(C)Sc1nc(-c2ccc(C)cc2)nc2c1COC(C)(C)C2 (configuration not stated) |
| 86% | 2270 nM |  |  |  |  | CC(C)NC(=O)C(C)Sc1nnc2c3ccccc3n(Cc3ccccc3)c2n1 (configuration not stated) |
| 95% | 308 nM | 103% | 4950 nM | 1500 nM | 16.1 | COc1ccc(C2c3cccn3-c3ccccc3N2C(=O)CN(C(=O)NC(C)(C)C)C(C)C)cc1 (configuration not stated) |
| 87% | 1610 nM |  |  |  |  | COC(=O)c1c(C)oc(C)c1S(=O)(=O)N1CCN(C2c3ccccc3-c3ccccc32)CC1 |
| 80% | 2310 nM |  |  |  |  | COc1ccccc1N1CCN(C(=O)C(C)Sc2nc(-c3ccccc3)cc(C(F)(F)F)n2)CC1 (configuration not stated) |
| 82% | 256 nM | 62% | 10000 nM | 200 nM | > 39 | O=C(Nc1ccccc1Oc1ccccc1)c1ccc(S(=O)(=O)N2CCc3ccccc32)cc1 |
| 78% | 520 nM | 91% | 10000 nM | 1100 nM | > 19.2 | Cc1ccc(C2c3cccn3-c3ccccc3N2C(=O)CN(C(=O)C2CCCC2)C2CC2)cc1 (configuration not stated) |
| 82% | 2590 nM |  |  |  |  | COc1ccc(C2c3ccsc3CCN2C(=O)CN(C(=O)C2CCCCC2)C(C)C)cc1 (configuration not stated) |
| 89% | 875 nM | 105% |  | 4400 nM |  | CC(C)CN(CC(=O)N1CCc2sccc2C1c1ccc(F)cc1)C(=O)c1ccco1 (configuration not stated) |
| 62% | 7490 nM |  |  |  |  | CC(C)(C)c1ccc(C(=O)N2C(C(=O)NCc3ccccn3)CSC2c2cccc(F)c2)cc1 (configuration not stated) |
